PubChem BioAssay AID248 (DTP/NCI, 2004)
“And” between values parts separate entries of the source, which are not always exact repeats. Equal values may be shown once. Inconclusive results and toxic doses are left out. No stated cut-off is given here; in the data, active means T/C of 150% or more; inactive means T/C below 125%.

Tested on: L1210 leukemia ip in BDF1 mice, survival T/C
Assay: NCI In Vivo Anticancer Drug Screen. Data for tumor model L1210 Leukemia (intraperitoneal) in B6D2F1 (BDF1) mice
Details: higher = longer survival
Outline: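 Transplanted-tumor mice were given test agent; controls received vehicle only. Survival readings from the two groups were divided (treated over control).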

[1] = endpoint: mean survival time, dose: 100.0 mg/kg/injection, schedule: Q04DX003 (ip), vehicle: saline with Tween-80
[2] = endpoint: mean survival time, dose: 200.0 mg/kg/injection, schedule: Q04DX003 (ip), vehicle: saline with Tween-80
[3] = endpoint: mean survival time, dose: 400.0 mg/kg/injection, schedule: Q04DX003 (ip), vehicle: saline with Tween-80
[4] = endpoint: mean survival time, dose: 100.0 mg/kg/injection, schedule: Q01DX001 (ip), vehicle: saline
[5] = endpoint: mean survival time, dose: 200.0 mg/kg/injection, schedule: Q01DX001 (ip), vehicle: saline
[6] = endpoint: mean survival time, dose: 100.0 mg/kg/injection, schedule: Q04DX003 (ip), vehicle: saline
[7] = endpoint: mean survival time, dose: 200.0 mg/kg/injection, schedule: Q04DX003 (ip), vehicle: saline
[8] = endpoint: mean survival time, dose: 100.0 mg/kg/injection, schedule: Q04DX003 (ip), vehicle: Klucel (hydroxypropylcellulose) (HPC)
[9] = endpoint: mean survival time, dose: 200.0 mg/kg/injection, schedule: Q04DX003 (ip), vehicle: Klucel (hydroxypropylcellulose) (HPC)
[10] = endpoint: mean survival time, dose: 400.0 mg/kg/injection, schedule: Q04DX003 (ip), vehicle: Klucel (hydroxypropylcellulose) (HPC)
[11] = endpoint: mean survival time, dose: 25.0 mg/kg/injection, schedule: Q01DX009 (ip), vehicle: Klucel (hydroxypropylcellulose) (HPC)
[12] = endpoint: mean survival time, dose: 50.0 mg/kg/injection, schedule: Q01DX009 (ip), vehicle: Klucel (hydroxypropylcellulose) (HPC)
[13] = endpoint: mean survival time, dose: 50.0 mg/kg/injection, schedule: Q04DX003 (ip), vehicle: saline

Measured: T/C

Cc1ccc(S(=O)(=O)Nc2cccc(C(=O)O)c2)cc1
inactive: endpoint: mean survival time, dose: 100.0 mg/kg/injection, schedule: Q01DX001 (ip), vehicle: other 98 % of control | [1] 98 % of control | endpoint: mean survival time, dose: 200.0 mg/kg/injection, schedule: Q01DX001 (ip), vehicle: other 104 % of control | [2] 104 % of control | endpoint: mean survival time, dose: 400.0 mg/kg/injection, schedule: Q01DX001 (ip), vehicle: other 102 % of control | [3] 98 % of control

C1=CC(=P(c2ccccc2)(c2ccccc2)c2ccccc2)C=C1
inactive: endpoint: mean survival time, dose: 30.0 mg/kg/injection, schedule: Q01DX015 (ip), vehicle: saline 95 % of control | endpoint: mean survival time, dose: 50.0 mg/kg/injection, schedule: Q01DX001 (ip), vehicle: saline 92 % of control | endpoint: mean survival time, dose: 60.0 mg/kg/injection, schedule: Q01DX015 (ip), vehicle: saline 89 % of control | [4] 97 % of control | endpoint: mean survival time, dose: 120.0 mg/kg/injection, schedule: Q01DX015 (ip), vehicle: saline 91 % of control | [5] 98 % of control | endpoint: mean survival time, dose: 240.0 mg/kg/injection, schedule: Q01DX015 (ip), vehicle: saline 91 % of control | endpoint: mean survival time, dose: 400.0 mg/kg/injection, schedule: Q01DX001 (ip), vehicle: saline 97 % of control

O=[N+]([O-])c1ccccc1CC1c2ccccc2-c2ccccc21
inactive: [6] 96 % of control | [7] 94 % of control | endpoint: mean survival time, dose: 400.0 mg/kg/injection, schedule: Q04DX003 (ip), vehicle: saline 93 % of control

C#CC(O)(c1ccccc1)c1ccc(N2CCOCC2)cc1 (stereo not given)
inactive: [8] 96 % of control | [9] 96 % of control | [10] 96 % of control

COc1ccc2nc3cc(Cl)ccc3c(Nc3ccc(O)c(CN(CCCl)CCCl)c3)c2c1
inactive: endpoint: mean survival time, dose: 0.3 mg/kg/injection, schedule: Q01DX Z (ip), vehicle: saline 118 % of control | endpoint: mean survival time, dose: 4.8 mg/kg/injection, schedule: Q01DX Z (ip), vehicle: saline 94 % of control | endpoint: mean survival time, dose: 5.0 mg/kg/injection, schedule: Q01DX001 (ip), vehicle: saline 111 % of control | endpoint: mean survival time, dose: 7.5 mg/kg/injection, schedule: Q04DX003 (ip), vehicle: saline 120 % of control | endpoint: mean survival time, dose: 10.0 mg/kg/injection, schedule: Q01DX001 (ip), vehicle: saline 108 % of control | endpoint: mean survival time, dose: 20.0 mg/kg/injection, schedule: Q01DX001 (ip), vehicle: saline 104 % of control | [4] 87 % of control

COC(=O)c1ccc(OC(=S)N(C)C)cc1
inactive: [8] 93 % of control | [9] 98 % of control | [10] 95 % of control

CC1CN=C(c2ccc(NC(=O)c3ccc(C(=O)Nc4ccc(C5=NCC(C)N5)cc4)c(N)c3)cc2)N1 (stereo not given)
inactive: endpoint: mean survival time, dose: 15.0 mg/kg/injection, schedule: Q01DX Z (ip), vehicle: saline 92 % of control | endpoint: mean survival time, dose: 30.0 mg/kg/injection, schedule: Q01DX Z (ip), vehicle: saline 86 % of control | endpoint: mean survival time, dose: 62.5 mg/kg/injection, schedule: Q01DX010 (oral), vehicle: saline 100 % of control | endpoint: mean survival time, dose: 125.0 mg/kg/injection, schedule: Q01DX010 (oral), vehicle: saline 100 % of control | endpoint: mean survival time, dose: 250.0 mg/kg/injection, schedule: Q01DX010 (oral), vehicle: saline 101 % of control | endpoint: mean survival time, dose: 500.0 mg/kg/injection, schedule: Q01DX010 (oral), vehicle: saline 105 % of control

Clc1c(C(Cl)(Cl)Cl)nc2ccccc2c1Cl
inactive: endpoint: mean survival time, dose: 12.5 mg/kg/injection, schedule: Q01DX009 (ip), vehicle: Klucel (hydroxypropylcellulose) (HPC) 115 % of control | [11] 107 % of control | [12] 86 % of control

N#C[C@H](OC1OC(COC2OC(CO)C(O)C(O)C2O)C(O)C(O)C1O)c1ccccc1 (stereo not given in full)
inactive: endpoint: mean survival time, dose: 100.0 mg/kg/injection, schedule: Q01DX009 (ip), vehicle: saline 102 % of control | endpoint: mean survival time, dose: 200.0 mg/kg/injection, schedule: Q01DX009 (ip), vehicle: saline 101 % of control | endpoint: mean survival time, dose: 400.0 mg/kg/injection, schedule: Q01DX009 (ip), vehicle: saline 98 % of control | endpoint: median survival time, dose: 25.0 mg/kg/injection, schedule: Q01DX009 (ip), vehicle: water 101 % of control | endpoint: median survival time, dose: 25.0 mg/kg/injection, schedule: Q01DX Z (ip), vehicle: water 100 % of control | endpoint: median survival time, dose: 50.0 mg/kg/injection, schedule: Q01DX009 (ip), vehicle: water 92 % of control | endpoint: median survival time, dose: 50.0 mg/kg/injection, schedule: Q01DX Z (ip), vehicle: water 87 % of control | endpoint: median survival time, dose: 100.0 mg/kg/injection, schedule: Q01DX009 (ip), vehicle: water 51 % of control | endpoint: median survival time, dose: 200.0 mg/kg/injection, schedule: Q01DX009 (ip), vehicle: water 51 % of control | endpoint: median survival time, dose: 400.0 mg/kg/injection, schedule: Q01DX009 (ip), vehicle: water 93 % of control | endpoint: median survival time, dose: 400.0 mg/kg/injection, schedule: Q01DX Z (ip), vehicle: water 87 % of control

O=CC(CCN1CCCC1)(CCN1CCCC1)c1cccc2ccccc12
inactive: endpoint: mean survival time, dose: 12.5 mg/kg/injection, schedule: Q04DX003 (ip), vehicle: saline 97 % of control | endpoint: mean survival time, dose: 25.0 mg/kg/injection, schedule: Q04DX003 (ip), vehicle: saline 108 % of control | [13] 93 % of control

Nc1nc(-c2ccccc2)nc2nonc12
inactive: [1] 105 % of control | [2] 99 % of control | [3] 97 % of control

CCCC[n+]1ccc(C(N)=O)cc1
inactive: [6] 100 % of control | [7] 100 % of control

COc1ccc(OC)c2[nH]c(=O)c(CCC(=O)O)nc12
inactive: endpoint: mean survival time, dose: 100.0 mg/kg/injection, schedule: Q04DX003 (ip), vehicle: other 96 % of control | endpoint: mean survival time, dose: 200.0 mg/kg/injection, schedule: Q04DX003 (ip), vehicle: other 96 % of control

O=C(O)c1ccccc1C(=O)OC1CC2C=CC1C21CC1 (stereo not given)
inactive: [12] 98 % of control | endpoint: mean survival time, dose: 100.0 mg/kg/injection, schedule: Q01DX009 (ip), vehicle: Klucel (hydroxypropylcellulose) (HPC) 96 % of control and 95 % of control | [8] 95 % of control | endpoint: mean survival time, dose: 200.0 mg/kg/injection, schedule: Q01DX009 (ip), vehicle: Klucel (hydroxypropylcellulose) (HPC) 100 % of control and 113 % of control | [9] 104 % of control and 106 % of control | [10] 101 % of control

CC(C)CCCC(C)C1CCC2C3CCC4CC(I)CCC4(C)C3CCC12C (stereo not given)
inactive: endpoint: mean survival time, dose: 100.0 mg/kg/injection, schedule: Q01DX001 (ip), vehicle: saline with Tween-80 93 % of control | endpoint: mean survival time, dose: 200.0 mg/kg/injection, schedule: Q01DX001 (ip), vehicle: saline with Tween-80 95 % of control | endpoint: mean survival time, dose: 400.0 mg/kg/injection, schedule: Q01DX001 (ip), vehicle: saline with Tween-80 90 % of control

Nc1[nH]c(=S)[nH]c(=S)c1N
inactive: endpoint: mean survival time, dose: 125.0 mg/kg/injection, schedule: Q01DX Z (ip), vehicle: methylcellulose (MC) 101 % of control

ClN=C(c1ccccc1)c1ccccc1
inactive: endpoint: mean survival time, dose: 12.0 mg/kg/injection, schedule: Q01DX009 (ip), vehicle: Klucel (hydroxypropylcellulose) (HPC) 110 % of control | [11] 102 % of control | [12] 107 % of control | [8] 100 % of control | [9] 98 % of control

CCOC(=O)CNc1cccc(F)c1C
inactive: endpoint: mean survival time, dose: 100.0 mg/kg/injection, schedule: Q04DX002 (ip), vehicle: Klucel (hydroxypropylcellulose) (HPC) 104 % of control | endpoint: mean survival time, dose: 200.0 mg/kg/injection, schedule: Q04DX002 (ip), vehicle: Klucel (hydroxypropylcellulose) (HPC) 104 % of control | endpoint: mean survival time, dose: 400.0 mg/kg/injection, schedule: Q04DX002 (ip), vehicle: Klucel (hydroxypropylcellulose) (HPC) 115 % of control

O=C(CCCC(=O)N/N=C/c1ccc2c(c1)CCC2)N/N=C/c1ccc2c(c1)CCC2
inactive: [1] 95 % of control | [2] 97 % of control | [3] 90 % of control

c1ccc(-c2cc(-c3ccccc3)on2)cc1
inactive: [8] 100 % of control | [9] 98 % of control | [10] 102 % of control

CCOC(=O)Nc1ccc2c(c1)/C(=N\NC(N)=S)c1ccccc1-2
inactive: endpoint: mean survival time, dose: 50.0 mg/kg/injection, schedule: Q01DX001 (ip), vehicle: carboxymethylcellulose (CMC) 94 % of control | [13] 86 % of control | endpoint: mean survival time, dose: 75.0 mg/kg/injection, schedule: Q01DX009 (ip), vehicle: saline with Tween-80 101 % of control | endpoint: mean survival time, dose: 100.0 mg/kg/injection, schedule: Q01DX001 (ip), vehicle: carboxymethylcellulose (CMC) 102 % of control | [4] 93 % of control | [6] 92 % of control | endpoint: mean survival time, dose: 150.0 mg/kg/injection, schedule: Q01DX009 (ip), vehicle: saline with Tween-80 113 % of control | endpoint: mean survival time, dose: 200.0 mg/kg/injection, schedule: Q01DX001 (ip), vehicle: carboxymethylcellulose (CMC) 105 % of control | [5] 96 % of control | [7] 100 % of control | endpoint: mean survival time, dose: 400.0 mg/kg/injection, schedule: Q01DX001 (ip), vehicle: carboxymethylcellulose (CMC) 100 % of control
